Reference: paper PMC11118832 (Biomolecules, 2024)
Square brackets hold non-standard residues; d marks the D form. Ends that are not written are not given here. Peptide text beside a SMILES is read from it. Lys(Me) = CNCCCC[C@H](N)C(=O)O; hLeu = CC(C)CC[C@H](N)C(=O)O

How the values were obtained:
PD-1/PD-L1 = target: T1, PD-1/PD-L1 (Homo sapiens, UniProt Q15116); assay: In vitro time-resolved FRET PD-1/PD-L1 binding assay (CisBio kit); details: CisBio PD-1/PD-L1 binding kit, TR FRET, 96-well; for EC50: serial dilutions in triplicate, NI = no inhibition at maximum concentration tested (* 5 μM, ** 50 μM), read-out: EC50 (Supplementary Table S1; inhibition of PD-1/PD-L1 binding by in vitro TR-FRET assay); for IC50: 4-fold serial dilutions in triplicate, freshly dissolved peptides, read-out: IC50, inhibition of PD-1/PD-L1 binding (TR FRET assay)
T1 construct: this kit uses ectodomains of PD-1 and PD-L1 that are expressed with orthogonal fusion tags (Tag-1 and Tag-2); purchased CisBio (currently Perkin-Elmer, Bedford, MA)
Description: Commercial PD-1/PD-L1 binding assay kit (CisBio, currently Perkin-Elmer, Bedford, MA) for time resolve fluorescent energy transfer (FRET) was used to assess peptides binding to PD-1. The assay for peptide screening was performed in a 96-well format (normal pressure), starting with 4-fold serial dilutions of each peptide in triplicate. No-peptide triplicate wells were used to assess fluorescent energy transfer in the absence of inhibition, and no-PD-1/PD-L1 triplicate wells were used to assess the background fluorescent energy transfer in the absence of PD-1/PD-L1 complexes. More detailed concentration dependences were obtained for selected peptides. Only freshly dissolved peptides were used in the assay. Various QSAR (quantitative structure activity relationship) hypotheses were tested by synthesizing batches of 10–12 peptides. In total, over one hundred candidates in ten iterations were screened for their ability to inhibit in vitro PD-1/PD-L1 binding using the commercial PD-1/PD-L1 binding assay kit (CisBio, currently Perkin-Elmer). Briefly, this kit uses ectodomains of PD-1 and PD-L1 that are expressed with orthogonal fusion tags (Tag-1 and Tag-2). It also includes two antibodies to selectively interact with these tags. The antibody against one tag is labeled with fluorescent moiety, which serves as a donor, while the other antibody is labeled with fluorescent moiety, which serves as an acceptor in fluorescent resonance energy transfer (FRET). When the complex is formed and probed with both anti-Tag-1 and anti-Tag-2 antibodies, donor and acceptor are sufficiently close, and FRET can be detected in a time-resolved (TR) manner. Inhibitors of PD-1/PD-L1 interactions prevent complex formation, leading to a decrease in TR FRET in a concentration-dependent manner, as shown in Figure 2 for four representative peptide inhibitors. Initial fourfold dilutions are exemplified by data for peptides B5.11 and B5.6 (panels A and B); examples of the more detailed follow-up concentration dependences are shown for peptides B2.4 and B2.22 (panels C and D). The potency of the inhibitors is then characterized by IC50, a concentration that inhibits TR FRET by 50%, allowing for a facile comparison of different inhibitors (Figure 2E).

[1] = pH 6.4
Description: We ran chemical shift mapping (CSM) experiments for four peptides, B5.11, B3.15, B5.6, and B2.22. […] CSM ^15N-HSQC experiments with unlabeled peptides (B5.11, B3.15, and B5.6) were performed on uniformly ^15N-labeled PD-1 in a buffer (two series, pH 6.4 and 6.7) containing 25 mM NaPO4, 100 mM NaCl, 1 mM DSS, 10% D2O, and 3% dDMSO (necessary to make peptides stocks). Spectra were recorded at 25 °C on a Varian INOVA 600 MHz spectrometer equipped with an inverse triple-resonance cold probe. Spectra were processed using NMRPipe (11.2 rev 2022.346.12.26) [35] and analyzed with CCPN Analysis [36] made available through NMRBox. Assignments for PD-1 were adopted from BMRB-18908. The chemical shift perturbations were calculated using the following equation [37]: Δδ=0.5(δ^2H+(αδN)^2) where the scaling factor, α, was set to 0.15.

| EC50 (PD-1/PD-L1) | IC50 (PD-1/PD-L1) | Molecule | Solubility / precipitation in NMR buffer [1] |
| --- | --- | --- | --- |
| > 5 µM | – | CC[C@H](C)[C@H](NC(=O)[C@@H](NC(=O)[C@H](CC(=O)O)NC(C)=O)C(C)C)C(=O)N[C@H](C(=O)NCC(=O)N[C@@H](C)C(=O)N[C@@H](C)C(=O)N[C@@H](Cc1c[nH]c2ccccc12)C(=O)N[C@@H](CC(=O)O)C(=O)N[C@@H](CCCCNC)C(=O)N[C@@H](CCCCN)C(=O)N[C@@H](Cc1ccc(O)cc1)C(N)=O)C(C)C [B6.3] (Ac-DVIVGAAWD[Lys(Me)]KY-NH2) | – |
| > 5 µM | – | CC(=O)N[C@@H](CC(=O)O)C(=O)N[C@H](C(=O)N[C@@H](CCC(C)C)C(=O)N[C@@H](CC(=O)O)C(=O)NCC(=O)N[C@@H](C)C(=O)N[C@@H](C)C(=O)N[C@@H](Cc1c[nH]c2ccccc12)C(=O)N[C@@H](CC(=O)O)C(=O)N[C@@H](Cc1ccc(O)cc1)C(=O)N[C@@H](CCCCN)C(=O)N[C@@H](Cc1ccc(O)cc1)C(N)=O)C(C)C [B8.14] (Ac-DV[hLeu]DGAAWDYKY-NH2) | – |
| > 5 µM | – | CC[C@H](C)[C@H](NC(=O)[C@H](CCC(C)C)NC(=O)[C@H](CC(=O)O)NC(C)=O)C(=O)N[C@@H](CC(=O)O)C(=O)NCC(=O)N[C@@H](C)C(=O)N[C@@H](C)C(=O)N[C@@H](Cc1c[nH]c2ccccc12)C(=O)N[C@@H](CC(=O)O)C(=O)N[C@@H](Cc1ccc(O)cc1)C(=O)N[C@@H](CCCCN)C(=O)N[C@@H](Cc1ccc(O)cc1)C(N)=O [B8.18] (Ac-D[hLeu]IDGAAWDYKY-NH2) | – |
| > 5 µM | – | CC[C@H](C)[C@H](NC(=O)[C@@H](NC(=O)[C@@H](CC(=O)O)NC(C)=O)C(C)C)C(=O)N[C@@H](CC(=O)O)C(=O)NCC(=O)N[C@@H](C)C(=O)N[C@@H](C)C(=O)N[C@@H](Cc1c[nH]c2ccccc12)C(=O)N[C@@H](CC(=O)O)C(=O)N[C@@H](Cc1ccc(O)cc1)C(=O)N[C@@H](CCCCN)C(=O)N[C@@H](Cc1ccc(O)cc1)C(N)=O [B8.19] (Ac-[dD]VIDGAAWDYKY-NH2) | – |
| > 5 µM | – | CC(=O)N[C@H](CC(=O)O)C(=O)N[C@@H](C)C(=O)N[C@@H](Cc1c[nH]c2ccccc12)C(=O)N[C@@H](CC(=O)O)C(=O)N[C@@H](Cc1ccc(O)cc1)C(=O)N[C@@H](CCCCN)C(=O)N[C@@H](Cc1ccc(O)cc1)C(N)=O [B9.3] (Ac-[dD]AWDYKY-NH2) | – |
| > 5 µM | – | CC(=O)N[C@H](CCC(=O)O)C(=O)N[C@@H](C)C(=O)N[C@@H](Cc1c[nH]c2ccccc12)C(=O)N[C@@H](CC(=O)O)C(=O)N[C@@H](Cc1ccc(O)cc1)C(=O)N[C@@H](CCCCN)C(=O)N[C@@H](Cc1ccc(O)cc1)C(N)=O [B9.5] (Ac-[dE]AWDYKY-NH2) | – |
| > 50 µM | – | CC(=O)N[C@H](CC(=O)O)C(=O)NCC(=O)N[C@@H](C)C(=O)N[C@@H](C)C(=O)N[C@@H](Cc1c[nH]c2ccccc12)C(=O)N[C@@H](CC(=O)O)C(=O)N[C@@H](Cc1ccc(O)cc1)C(=O)N[C@@H](CCCCN)C(=O)N[C@@H](Cc1ccc(O)cc1)C(N)=O [B9.8] (Ac-[dD]GAAWDYKY-NH2) | – |
| > 5 µM | – | CC(=O)N[C@H](CC(=O)O)C(=O)N[C@@H](C)C(=O)N[C@@H](C)C(=O)N[C@@H](Cc1c[nH]c2ccccc12)C(=O)N[C@@H](CC(=O)O)C(=O)N[C@@H](Cc1ccc(O)cc1)C(=O)N[C@@H](CCCCN)C(=O)N[C@@H](Cc1ccc(O)cc1)C(N)=O [B9.9] (Ac-[dD]AAWDYKY-NH2) | – |
| > 50 µM | – | Ac-AWDYKY-NH2 [B2.19] | – |
| > 5 µM | – | Ac-DAAWDYKY-NH2 [B9.1] | – |
| > 5 µM | – | Ac-DAIDGAAWDYKY-NH2 [B8.2] | – |
| > 5 µM | – | Ac-DAWDYKY-NH2 [B9.2] | – |
| > 5 µM | – | Ac-DDIVGAAWDYKY-NH2 [B7.6] | – |
| > 5 µM | – | Ac-DGAAWDYKY-NH2 [B9.0] | – |
| > 5 µM | – | Ac-DIIDGAAWDYKY-NH2 [B8.16] | – |
| > 5 µM | – | Ac-DIIVGAAWDYKY-NH2 [B5.10] | – |
| > 5 µM | – | Ac-DLIDGAAWDYKY-NH2 [B8.15] | – |
| > 5 µM | – | Ac-DVIDGAAHDYKY-NH2 [B8.21] | – |
| > 5 µM | – | Ac-DVIDGAAWDRKY-NH2 [B8.22] | – |
| > 5 µM | – | Ac-DVIDGAAWDYK-NH2 [B8.24] | – |
| > 5 µM | – | Ac-DVIDGAAWDYKR-NH2 [B8.23] | – |
| 0.05 µM | 0.05 µM | Ac-DVIDGAAWDYKY-NH2 [B5.11] | – |
| > 5 µM | – | Ac-DVIDGAAWDYKYLQ-NH2 [B7.8] | – |
| > 5 µM | – | Ac-DVIDGAAWDYKYLT-NH2 [B7.9] | – |
| 6.8 µM | – | Ac-DVIDGAAWDYRY-NH2 [B8.7] | – |

| EC50 (PD-1/PD-L1) | IC50 (PD-1/PD-L1) | Molecule | Solubility / precipitation in NMR buffer [1] |
| --- | --- | --- | --- |
| > 5 µM | – | Ac-DVIDGADWDYKY-NH2 [B8.20] | – |
| 5.8 µM | – | Ac-DVIDGPAWDYKY-NH2 [B8.11] | – |
| > 5 µM | – | Ac-DVIDPAAWDYKY-NH2 [B8.12] | – |
| 2.2 µM | – | Ac-DVIEGAAWDYKY-NH2 [B8.1] | – |
| > 5 µM | – | Ac-DVINGAAWDYKY-NH2 [B8.4] | – |
| 0.13 µM | 0.13 µM | Ac-DVIVGAAWDYKY-NH2 [B3.15] | – |
| > 5 µM | – | Ac-DVIVGAAWDYKYLQ-NH2 [B7.5] | – |
| > 5 µM | – | Ac-DVIVGAAWDYKYLT-NH2 [B7.1] | – |
| > 5 µM | – | Ac-DVIVGAAWDYKYLY-NH2 [B7.4] | – |
| > 5 µM | – | Ac-DVIVGASWDYKY-NH2 [B7.3] | – |
| > 5 µM | – | Ac-DVIVGSAWDYKY-NH2 [B7.2] | – |
| > 5 µM | – | Ac-DVIYGAAWDYKY-NH2 [B7.10] | – |
| > 5 µM | – | Ac-DVIYGAAWDYKYLT-NH2 [B7.11] | – |
| > 5 µM | – | Ac-DVLDGAAWDYKY-NH2 [B8.13] | – |
| > 5 µM | – | Ac-DVVDGAAWDYKY-NH2 [B8.3] | – |
| > 5 µM | – | Ac-DVWVGAAWDYKY-NH2 [B5.2] | – |
| > 5 µM | – | Ac-DWIVGAAWDYKY-NH2 [B5.13] | – |
| > 50 µM | – | Ac-EAAWDYKY-NH2 [B9.7] | – |
| > 5 µM | – | Ac-EAWDYKY-NH2 [B9.4] | – |
| > 50 µM | – | Ac-EGAAWDYKY-NH2 [B9.6] | – |
| > 5 µM | – | Ac-EVIDGAAWDYKY-NH2 [B8.17] | – |
| > 5 µM | – | Ac-EVIVGAAWDYKY-NH2 [B5.12] | – |
| > 50 µM | – | Ac-IVGAAWDYKY-NH2 [B3.1] | – |
| > 50 µM | – | Ac-LEIKGAEWDYKY-NH2 [B3.18] | – |
| > 50 µM | – | Ac-LVDVGAAWDYKY-NH2 [B3.16] | – |

| EC50 (PD-1/PD-L1) | IC50 (PD-1/PD-L1) | Molecule | Solubility / precipitation in NMR buffer [1] |
| --- | --- | --- | --- |
| > 50 µM | – | Ac-LVIVGAAWDRKY-NH2 [B3.17] | – |
| > 5 µM | – | Ac-LVIVGAAWDYK-NH2 [B3.14] | – |
| 21 µM | – | Ac-LVIVGAAWDYKR-NH2 [B3.4] | – |
| 0.7 µM | 0.7 µM | Ac-LVIVGAAWDYKY-NH2 [B2.22] | too hydrophobic and precipitated totally out of the solution |
| 26 µM | – | Ac-LVIVGARWDYKR-NH2 [B3.7] | – |
| 8.5 µM | – | Ac-LVIVGPAWDYKY-NH2 [B3.9] | – |
| 5 µM | – | Ac-LVWVGAAWDRKY-NH2 [B3.19] | – |
| > 50 µM | – | Ac-LVWVGAAWDYKY-NH2 [B3.2] | – |
| > 5 µM | – | Ac-NVIDGAAWDYKY-NH2 [B8.5] | – |
| > 5 µM | – | Ac-NVIVGAAWDYKY-NH2 [B7.7] | – |
| 24 µM | – | Ac-RSMISYGGADDYK-NH2 [B1.1] | – |
| 12.7 µM | – | Ac-RVFVFVGAAWDYKY-NH2 [B2.21] | – |
| 55 µM | – | Ac-RVKVIVGAAWDYKY-NH2 [B2.11] | – |
| 35 µM | – | Ac-RVLVIVGAALDYKY-NH2 [B2.30] | – |
| 55 µM | – | Ac-RVLVIVGAAWDYKR-NH2 [B2.7] | – |
| 30 µM | – | Ac-RVLVIVGAAWDYKY-NH2 [B2.1] | – |
| 1 µM | – | Ac-RVLVWVGAAWDYKY-NH2 [B2.18] | – |
| 20 µM | – | Ac-RVWVIVGAAWDYKY-NH2 [B2.12] | – |
| > 50 µM | – | Ac-WVWVGAAWDYKY-NH2 [B3.8] | – |
| 22 µM | – | Ac-YVLVIVGAAWDKKY-NH2 [B2.26] | – |
| > 5 µM | – | DVIVGAAWDYKY [B5.14] | – |
| > 50 µM | – | IVGAAWDYKY [B3.12] | – |
| 10 µM | – | KRVLVIVGAAWDYKYE [B2.35] | – |
| 14 µM | – | LVIVGAAWDYKY [B3.11] | – |
| 11 µM | – | RVLVIVGAAWDYKY [B2.28] | – |

| Molecule | EC50 (PD-1/PD-L1) | IC50 (PD-1/PD-L1) | Solubility / precipitation in NMR buffer [1] |
| --- | --- | --- | --- |
| Ac-GADYKRITVKVN-NH2 [PL-120, reference compound] | 35 µM | – | – |
